Assay results reported in PubChem BioAssay AID256 (DTP/NCI, 2004).
Where “and” joins values, the source holds several entries; their conditions need not be identical. Identical values can stand only once. Inconclusive results and toxic doses are left out.

Tested on: CD2F1 mice, L1210 leukemia ip, survival T/C
Test: NCI In Vivo Anticancer Drug Screen. Data for tumor model L1210 Leukemia (intraperitoneal) in CD2F1 (CDF1) mice
Settings: higher = longer survival
Outline: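 Transplantable tumor in mice; compound-treated vs vehicle-treated groups. Read-out = treated/control ratio of the measured endpoint.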

[1] = endpoint: median survival time, dose: 25.0 mg/kg/injection, schedule: Q01DX009 (ip), vehicle: Klucel (hydroxypropylcellulose) (HPC)
[2] = endpoint: median survival time, dose: 50.0 mg/kg/injection, schedule: Q01DX009 (ip), vehicle: Klucel (hydroxypropylcellulose) (HPC)
[3] = endpoint: median survival time, dose: 100.0 mg/kg/injection, schedule: Q01DX009 (ip), vehicle: Klucel (hydroxypropylcellulose) (HPC)
[4] = endpoint: median survival time, dose: 200.0 mg/kg/injection, schedule: Q01DX009 (ip), vehicle: Klucel (hydroxypropylcellulose) (HPC)
[5] = endpoint: mean survival time, dose: 50.0 mg/kg/injection, schedule: Q01DX009 (ip), vehicle: saline with Tween-80
[6] = endpoint: mean survival time, dose: 100.0 mg/kg/injection, schedule: Q01DX009 (ip), vehicle: saline with Tween-80
[7] = endpoint: mean survival time, dose: 100.0 mg/kg/injection, schedule: Q04DX003 (ip), vehicle: saline
[8] = endpoint: mean survival time, dose: 100.0 mg/kg/injection, schedule: Q04DX002 (ip), vehicle: saline with Tween-80
[9] = endpoint: mean survival time, dose: 200.0 mg/kg/injection, schedule: Q04DX002 (ip), vehicle: saline with Tween-80
[10] = endpoint: mean survival time, dose: 400.0 mg/kg/injection, schedule: Q04DX002 (ip), vehicle: saline with Tween-80
[11] = endpoint: mean survival time, dose: 100.0 mg/kg/injection, schedule: Q04DX003 (ip), vehicle: saline with Tween-80
[12] = endpoint: mean survival time, dose: 200.0 mg/kg/injection, schedule: Q04DX003 (ip), vehicle: saline with Tween-80
[13] = endpoint: mean survival time, dose: 400.0 mg/kg/injection, schedule: Q04DX003 (ip), vehicle: saline with Tween-80
[14] = endpoint: mean survival time, dose: 100.0 mg/kg/injection, schedule: Q01DX001 (ip), vehicle: saline with Tween-80
[15] = endpoint: mean survival time, dose: 200.0 mg/kg/injection, schedule: Q01DX001 (ip), vehicle: saline with Tween-80
[16] = endpoint: mean survival time, dose: 400.0 mg/kg/injection, schedule: Q01DX001 (ip), vehicle: saline with Tween-80

In the case of O=C(OCC1OC(n2cnc3cc(Cl)c(Cl)cc32)C(OC(=O)c2ccccc2)C1OC(=O)c1ccccc1)c1ccccc1 (stereo not drawn), the T/C (endpoint: mean survival time, dose: 12.5 mg/kg/injection, schedule: Q01DX005 (ip), vehicle: distilled water + Tween-80) is reported as 95 % of control, the T/C (endpoint: mean survival time, dose: 25.0 mg/kg/injection, schedule: Q01DX005 (ip), vehicle: distilled water + Tween-80) is reported as 101 % of control and the T/C (endpoint: mean survival time, dose: 50.0 mg/kg/injection, schedule: Q01DX005 (ip), vehicle: distilled water + Tween-80) is reported as 93 % of control. For the same compound, the T/C (endpoint: mean survival time, dose: 100.0 mg/kg/injection, schedule: Q01DX005 (ip), vehicle: distilled water + Tween-80) was 95 % of control.

For COc1cc2c[n+](C)c3c(c2cc1OC)Cc1cc2c(cc1-3)OCO2, the T/C (endpoint: median survival time, dose: 6.0 mg/kg/injection, schedule: Q01DX009 (ip), vehicle: saline with Tween-80) was 122 % of control, the T/C (endpoint: median survival time, dose: 25.0 mg/kg/injection, schedule: Q01DX009 (ip), vehicle: saline with Tween-80) was 152 % of control and 162 % of control and the T/C (endpoint: median survival time, dose: 50.0 mg/kg/injection, schedule: Q01DX009 (ip), vehicle: saline with Tween-80) was 164 % of control and 168 % of control. The T/C (endpoint: median survival time, dose: 100.0 mg/kg/injection, schedule: Q01DX009 (ip), vehicle: saline with Tween-80) was 94 % of control.

In the case of CCCCCCCCCC/C=C/C1=C(N=[N+]=N)C(=O)c2ccccc2C1=O, the T/C (endpoint: mean survival time, dose: 100.0 mg/kg/injection, schedule: Q01DX001 (ip), vehicle: other) is reported as 92 % of control, the T/C (endpoint: mean survival time, dose: 200.0 mg/kg/injection, schedule: Q01DX001 (ip), vehicle: other) is reported as 92 % of control and the T/C (endpoint: mean survival time, dose: 400.0 mg/kg/injection, schedule: Q01DX001 (ip), vehicle: other) is reported as 94 % of control.

In the case of NC1CCCCC1N.NC1CCCCC1N.[Cl-].[Cu+] (stereo not drawn), the T/C (endpoint: mean survival time, dose: 1.56 mg/kg/injection, schedule: Q04DX002 (ip), vehicle: saline) is reported as 97 % of control, the T/C (endpoint: mean survival time, dose: 3.13 mg/kg/injection, schedule: Q04DX002 (ip), vehicle: saline) is reported as 97 % of control and the T/C (endpoint: mean survival time, dose: 6.25 mg/kg/injection, schedule: Q04DX002 (ip), vehicle: saline) is reported as 97 % of control.

CN(C)c1ccc2c(SCC(=O)OCC(=O)[C@@]3(O)CC[C@H]4[C@@H]5CCC6=CC(=O)C=C[C@]6(C)[C@H]5C(=O)C[C@@]43C)c3ccc(N(C)C)cc3nc2c1 was tested, and the T/C [1] was 117 % of control and 105 % of control, the T/C [2] was 114 % of control and 116 % of control and 108 % of control and the T/C [3] was 116 % of control and 118 % of control and 123 % of control. The T/C [4] was 108 % of control and the T/C (endpoint: median survival time, dose: 400.0 mg/kg/injection, schedule: Q01DX009 (ip), vehicle: Klucel (hydroxypropylcellulose) (HPC)) was 123 % of control.

In the case of O=C(O)CN(CCO)CCN(CC(=O)O)CC(=O)O, the T/C (endpoint: mean survival time, dose: 25.0 mg/kg/injection, schedule: Q01DX009 (ip), vehicle: saline with Tween-80) is reported as 102 % of control, the T/C [5] is reported as 108 % of control and the T/C [6] is reported as 105 % of control. The T/C [7] was 104 % of control.

CC(C)(C)OC(=O)NC(CCC(=O)O)C(=O)OC(C)(C)C (stereo not drawn) was tested, and the T/C [6] was 102 % of control, the T/C (endpoint: mean survival time, dose: 200.0 mg/kg/injection, schedule: Q01DX009 (ip), vehicle: saline with Tween-80) was 93 % of control and the T/C (endpoint: mean survival time, dose: 400.0 mg/kg/injection, schedule: Q01DX009 (ip), vehicle: saline with Tween-80) was 92 % of control.

In the case of O=[N+]([O-])c1cccc(S(=O)(=O)N2CCCCC2)c1, the T/C (endpoint: mean survival time, dose: 50.0 mg/kg/injection, schedule: Q04DX002 (ip), vehicle: saline with Tween-80) is reported as 95 % of control, the T/C [8] is reported as 87 % of control and the T/C [9] is reported as 95 % of control. The T/C [10] was 91 % of control.

With C=CCOC(=O)CCN1CC1 the T/C (endpoint: mean survival time, dose: 0.5 mg/kg/injection, schedule: Q01DX009 (ip), vehicle: saline with Tween-80) was 106 % of control, the T/C (endpoint: mean survival time, dose: 1.0 mg/kg/injection, schedule: Q01DX009 (ip), vehicle: saline with Tween-80) was 103 % of control and the T/C (endpoint: mean survival time, dose: 2.0 mg/kg/injection, schedule: Q01DX009 (ip), vehicle: saline with Tween-80) was 103 % of control.

With Nc1cccc2sccc12 the T/C (endpoint: mean survival time, dose: 100.0 mg/kg/injection, schedule: Q04DX003 (ip), vehicle: other) was 106 % of control, the T/C (endpoint: mean survival time, dose: 200.0 mg/kg/injection, schedule: Q04DX003 (ip), vehicle: other) was 113 % of control and the T/C (endpoint: mean survival time, dose: 400.0 mg/kg/injection, schedule: Q04DX003 (ip), vehicle: other) was 101 % of control.

In the case of CC(=O)Nc1c([N+](=O)[O-])cc2c3c(cccc13)C=C2, the T/C [11] is reported as 95 % of control, the T/C [12] is reported as 92 % of control and the T/C [13] is reported as 104 % of control.

CCOC(=O)c1ccc(OC(=O)Nc2cc(C)ccc2C)cc1 was tested, and the T/C [5] was 100 % of control, the T/C [14] was 103 % of control and the T/C [8] was 98 % of control and 101 % of control. For the same compound, the T/C [11] was 97 % of control, the T/C [15] was 100 % of control and the T/C [9] was 113 % of control and 109 % of control. For the same compound, the T/C [12] was 92 % of control, the T/C [16] was 102 % of control and the T/C [10] was 114 % of control and 102 % of control. For the same compound, the T/C [13] was 94 % of control.

CCOC(=O)c1c[nH]c2cc(OCC3CC3)c(OCC3CC3)cc2c1=O was tested, and the T/C [11] was 95 % of control, the T/C [12] was 95 % of control and the T/C [13] was 93 % of control.

Cc1ccc(C2=CSC3=NCCN23)cc1Cl was tested, and the T/C (endpoint: median survival time, dose: 6.25 mg/kg/injection, schedule: Q01DX005 (ip), vehicle: saline) was 116 % of control, the T/C (endpoint: median survival time, dose: 12.5 mg/kg/injection, schedule: Q01DX005 (ip), vehicle: saline) was 108 % of control and the T/C (endpoint: median survival time, dose: 25.0 mg/kg/injection, schedule: Q01DX005 (ip), vehicle: saline) was 109 % of control. For the same compound, the T/C (endpoint: median survival time, dose: 50.0 mg/kg/injection, schedule: Q01DX005 (ip), vehicle: saline) was 100 % of control.

For Cc1ccc(S(=O)(=O)OC(C#N)c2ccccc2)cc1 (stereo not drawn), the T/C [5] was 100 % of control, the T/C (endpoint: mean survival time, dose: 50.0 mg/kg/injection, schedule: Q04DX003 (ip), vehicle: saline with Tween-80) was 102 % of control and the T/C [14] was 98 % of control. The T/C [6] was 101 % of control, the T/C [11] was 101 % of control and the T/C [15] was 105 % of control. For the same compound, the T/C [12] was 107 % of control.

For O=C1C(=O)c2ccccc2C(O)=C1C(C1=C(O)c2ccccc2C(=O)C1=O)c1ccc(C(C2=C(O)c3ccccc3C(=O)C2=O)C2=C(O)c3ccccc3C(=O)C2=O)cc1, the T/C (endpoint: mean survival time, dose: 100.0 mg/kg/injection, schedule: Q01DX009 (ip), vehicle: saline sonified) was 96 % of control, the T/C (endpoint: mean survival time, dose: 200.0 mg/kg/injection, schedule: Q01DX009 (ip), vehicle: saline sonified) was 97 % of control and the T/C (endpoint: mean survival time, dose: 400.0 mg/kg/injection, schedule: Q01DX009 (ip), vehicle: saline sonified) was 108 % of control.

CC(C)(C)C1CC[N-]CC1.CC(C)(C)C1CC[N-]CC1.[Cl][Pt+2][Cl] was tested, and the T/C (endpoint: mean survival time, dose: 75.0 mg/kg/injection, schedule: Q04DX002 (ip), vehicle: saline with Tween-80) was 95 % of control, the T/C (endpoint: mean survival time, dose: 150.0 mg/kg/injection, schedule: Q04DX002 (ip), vehicle: saline with Tween-80) was 98 % of control and the T/C (endpoint: mean survival time, dose: 300.0 mg/kg/injection, schedule: Q04DX002 (ip), vehicle: saline with Tween-80) was 107 % of control.

With Cc1c2c(cc3c1CCC1(C)C3CCC1C(C)/C=C/C(C)C(C)C)CCC=C2 (stereo not drawn) the T/C [14] was 95 % of control, the T/C [15] was 90 % of control and the T/C [16] was 86 % of control.

NC(=S)c1cc(C(N)=S)[nH]n1 was tested, and the T/C (endpoint: mean survival time, dose: 6.25 mg/kg/injection, schedule: Q01DX005 (ip), vehicle: other) was 101 % of control, the T/C (endpoint: mean survival time, dose: 12.5 mg/kg/injection, schedule: Q01DX005 (ip), vehicle: other) was 97 % of control and the T/C (endpoint: mean survival time, dose: 25.0 mg/kg/injection, schedule: Q01DX005 (ip), vehicle: other) was 93 % of control. For the same compound, the T/C (endpoint: mean survival time, dose: 50.0 mg/kg/injection, schedule: Q01DX005 (ip), vehicle: other) was 95 % of control.

For Cc1ccnc(=S)[nH]1.[Pd], the T/C (endpoint: mean survival time, dose: 3.12 mg/kg/injection, schedule: Q04DX003 (ip), vehicle: saline) was 98 % of control, the T/C (endpoint: mean survival time, dose: 6.25 mg/kg/injection, schedule: Q04DX003 (ip), vehicle: saline) was 102 % of control and the T/C (endpoint: mean survival time, dose: 12.5 mg/kg/injection, schedule: Q04DX003 (ip), vehicle: saline) was 98 % of control. For the same compound, the T/C (endpoint: mean survival time, dose: 25.0 mg/kg/injection, schedule: Q04DX003 (ip), vehicle: saline) was 98 % of control, the T/C (endpoint: mean survival time, dose: 50.0 mg/kg/injection, schedule: Q04DX003 (ip), vehicle: saline) was 102 % of control and the T/C [7] was 102 % of control. For the same compound, the T/C (endpoint: mean survival time, dose: 200.0 mg/kg/injection, schedule: Q04DX003 (ip), vehicle: saline) was 104 % of control.

For Clc1ccc(C2SC=Cc3ccccc32)cc1 (stereo not drawn), the T/C [1] was 110 % of control, the T/C [2] was 104 % of control and the T/C [3] was 109 % of control. For the same compound, the T/C [4] was 104 % of control.

O=C(O)C1CCCCC1c1c2ccc(=O)cc-2oc2cc(O)ccc12 (stereo not drawn) was tested, and the T/C [11] was 104 % of control, the T/C [12] was 92 % of control and the T/C [13] was 92 % of control.

c1ccc(C2=C(c3ccccc3)C(c3ccccc3)(c3ccccc3)c3ccccc32)cc1 was tested, and the T/C [11] was 101 % of control, the T/C [12] was 98 % of control and the T/C [13] was 98 % of control.
